From patent publication US11780845B2 (Relay Therapeutics, Inc., priority 2019, dated 2023) come the findings set out here.

T1 sequence (P21802 22-821): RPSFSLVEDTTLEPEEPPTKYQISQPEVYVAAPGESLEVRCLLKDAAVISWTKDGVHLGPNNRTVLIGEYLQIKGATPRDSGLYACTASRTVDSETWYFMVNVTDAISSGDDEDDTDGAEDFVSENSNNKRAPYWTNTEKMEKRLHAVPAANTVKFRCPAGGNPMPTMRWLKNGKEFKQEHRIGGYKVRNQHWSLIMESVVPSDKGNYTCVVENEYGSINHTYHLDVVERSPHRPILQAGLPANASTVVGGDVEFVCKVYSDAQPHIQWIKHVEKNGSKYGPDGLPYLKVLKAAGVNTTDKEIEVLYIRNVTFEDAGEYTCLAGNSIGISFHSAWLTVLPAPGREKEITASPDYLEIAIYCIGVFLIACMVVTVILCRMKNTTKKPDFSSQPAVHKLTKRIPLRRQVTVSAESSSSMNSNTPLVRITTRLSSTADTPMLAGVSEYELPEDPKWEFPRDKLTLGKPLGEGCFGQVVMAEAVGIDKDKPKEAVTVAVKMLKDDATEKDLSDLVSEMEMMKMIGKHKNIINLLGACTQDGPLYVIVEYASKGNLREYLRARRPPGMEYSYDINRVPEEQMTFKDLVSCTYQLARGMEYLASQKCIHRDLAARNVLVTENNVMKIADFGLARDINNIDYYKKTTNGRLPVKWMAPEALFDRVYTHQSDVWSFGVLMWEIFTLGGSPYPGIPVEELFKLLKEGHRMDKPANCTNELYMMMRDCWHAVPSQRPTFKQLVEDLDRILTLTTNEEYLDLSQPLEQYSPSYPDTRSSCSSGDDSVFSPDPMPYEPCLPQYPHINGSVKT

One assay concerns SNU-16. Kind of assay: Cell SNU-16 assay. It is filed as cell-based. The settings on record: SNU-16 cells.
The compound `C#Cc1cc(C)c(-c2c(-c3ccc(Oc4nccc(C)n4)c(F)c3)c3c(N)ncnc3n2C)c(F)n1` (atropisomer, axis not shown) [Example 1339] registered an IC50 of at most 100 nM.

Regarding `C#Cc1ncc(-c2c(-c3ccc(Oc4nccc(C)n4)c(F)c3)c3c(N)ncnc3n2C(C)C)c(C)c1F` (atropisomer, axis not shown) [Example 1361], the IC50 was at most 100 nM.

Consider `C=CC(=O)Nc1ccc(-c2c(C3=CC[C@@H](C(=O)N4CCCC4)CC3)c3c(N)ncnc3n2C)cc1` (single isomer, unassigned) [Example 1051], for which the IC50 is at most 100 nM.

`C#Cc1cc(C)c(-c2c(-c3ccc(Oc4nccc(C)n4)c(F)c3)c3c(C)ncnc3n2C)c(C)n1` [Example 1410] showed an IC50 of at most 100 nM.

The next assay addresses T1, FGFR2 (Homo sapiens (Human), UniProt P21802). Kind of assay: FGFR2 Biochemical Caliper Assay.
Conditions: not given
The method, then: Compounds of the present invention were also tested in a FGFR2 Biochemical Caliper Assay. Compounds were prepared in 10 mM DMSO solution and serially diluted into 11 concentrations by 3-fold dilution. […] 5 uL of ATP solution (100 uM) was added to start the reaction and the plate was incubated for 90 minutes, then 70 uL of stopping buffer (0.5M EDTA) was added to terminate the reaction. Each well was analyzed using EZ reader.
In the case of `Cn1c(-c2ccc(NC(=O)C=C3CCCC3)cc2)c(-c2ccc(C(=O)N3CCCC3)cc2)c2c(N)ncnc21` [Example 545], the IC50 is 1000 to 100000 nM.

`C=C(C)C(=O)Nc1ccc(-c2c(-c3ccc(Oc4cnc(C)cn4)c(F)c3)c3c(N)ncnc3n2C)cc1` [Example 92]: the IC50 was 1000 to 100000 nM.

The compound `C=C(C)C(=O)Nc1ccc(-c2c(-c3ccc4[nH]c(C(=O)O)cc4c3)c3c(N)ncnc3n2C)cc1` [Example 185] displayed an IC50 of 1000 to 100000 nM.

`C=C(C)C(=O)Nc1ccc(-c2c(-c3ccc(C(=O)NC4CCNC4)cc3)c3c(N)ncnc3n2C)cc1` (stereo not shown) [Example 358] registered a half-maximal inhibitory concentration (IC50) of under 100 nM.

The compound `C=C(C)C(=O)Nc1ccc(-c2c(-c3ccc(C(=O)N(C)C[C@@H]4CCOC4)cc3)c3c(N)ncnc3n2C)cc1` (single isomer, unassigned) [Example 473] registered an IC50 of 250 to 1000 nM.

For the compound `Cn1c(-c2ccc(NC(=O)[C@H]3CO3)cc2)c(-c2ccc(C(=O)N3CCCC3)cc2)c2c(N)ncnc21` (single isomer, unassigned) [Example 585], the IC50 was 100 to 250 nM.

With `C=C(C)C(=O)Nc1ccc(-c2c(-c3ccc(C(=O)N4CC5(CCC5)C4)cc3)c3c(N)ncnc3n2C)cc1` [Example 231], the IC50 lay within 1000 to 100000 nM.

A further assay deals with T1, FGFR2. Kind of assay: Biochemical FGFR2 Caliper assay.
Conditions: not given
Compound `C=CC(=O)Nc1ccc(-c2c(-c3ccc4cc[nH]c4c3)c3c(N)ncnc3n2C)cc1` [Example 1147] returned a 50% inhibitory concentration (IC50) of 1000 to 100000 nM.

For the compound `C=C(C)C(=O)Nc1ccc(-c2c(C#Cc3cc(OC)cc(OC)c3)c3c(N)ncnc3n2C)cc1` [Example 1152], the IC50 was 1000 to 100000 nM.

`C=C(C)C(=O)Nc1ccc(-c2c(C3=CCC(c4nc(C)no4)CC3)c3c(N)ncnc3n2C)cc1` (stereo not shown) [Example 1222] displayed an IC50 of 1000 to 100000 nM.

On to `C=C(C)C(=O)Nc1ccc(-c2c(-c3cc4ccccc4s3)c3c(N)ncnc3n2C)cc1` [Example 1209], for which the IC50 lay in the range of 250 to 1000 nM.

The compound `C#Cc1cc2c(cn1)-c1c(C3=CC[C@@H](C(=O)N4CCC[C@H]4C#N)CC3)c3c(N)ncnc3n1CCC2` [Example 1444] had an IC50 of under 100 nM.

The compound `C=C(C)C(=O)Nc1ccc(-c2c(C3=CCN(C(=O)OCc4ccccc4)CC3)c3c(N)ncnc3n2C)cc1` [Example 1190] gave an IC50 of 1000 to 100000 nM.

In the case of `C#Cc1ccc(-c2c(-c3ccc(Oc4nccc(C)n4)c(F)c3)c3c(C)ncnc3n2C)c(C)n1` [Example 1174], the IC50 lay in the range of 1000 to 100000 nM.

`C#Cc1ncc(-c2c(-c3ccc(Oc4nccc(C)n4)cc3)c3c(C)ncnc3n2C)c(C)n1` [Example 1100] gave an IC50 of 100 to 250 nM.

For the compound `CN(C)C/C=C/C(=O)Nc1cccc(-c2c(-c3ccc(C(=O)N4CCCC4)cc3)c3c(N)ncnc3n2C)c1` [Example 1099], the IC50 was under 100 nM.

Compound `C=CC(=O)Nc1ccc(-c2c(-c3cc4ccccc4s3)c3c(C)ncnc3n2C)cc1` [Example 1223] showed an IC50 of 1000 to 100000 nM.

On to `C=CC(=O)Nc1ccc(-c2c(-c3cc4ccccc4s3)c3c(N)ncnc3n2C)cc1` [Example 1149], for which the half-inhibitory concentration (IC50) was under 100 nM.

Consider `C=C(C)C(=O)Nc1ccc(-c2c(-c3ccc(-c4noc(C5CC5)n4)cc3)c3c(N)ncnc3n2C)cc1` [Example 1333], for which the IC50 fell in the range of 250 to 1000 nM.

In turn, `C=C(C)C(=O)Nc1ccc(-c2c(-c3ccc(-c4nc(C)no4)cc3)c3c(N)ncnc3n2C)cc1` [Example 1244] displayed an IC50 of 1000 to 100000 nM.

For `C#Cc1cc2c(cn1)-c1c(C3=CC[C@H](C(=O)N4CCC[C@H]4C#N)CC3)c3c(N)ncnc3n1CCC2` [Example 1496], the IC50 was in the range of 250 to 1000 nM.

`C#Cc1ccc(-c2c(-c3ccccc3)c3c(N)ncnc3n2C)cn1` [Example 1192] returned an IC50 of under 100 nM.

`C=C(C)C(=O)Nc1ccc(-c2c(-c3ccc(-c4noc(C5CC5)n4)cc3)c3c(N)ncnc3n2C)cn1` [Example 1362]: the IC50 is 100 to 250 nM.

Compound `C=C(C)C(=O)Nc1ccc(-c2c(C3=CCC(c4ccccc4)CC3)c3c(N)ncnc3n2C)cc1` (stereo not shown) [Example 1227] gave an IC50 of 1000 to 100000 nM.

`C=CC(=O)Nc1ccc(-c2c(-c3ccc(Oc4cccc(C)n4)cc3)c3c(C)ncnc3n2C)cc1` [Example 1220] registered an IC50 of under 100 nM.

In turn, `C=C(C)C(=O)Nc1ccc(-c2c(-c3ccc(-n4ccc(C)n4)nc3)c3c(N)ncnc3n2C)cc1` [Example 1146] showed an IC50 of 250 to 1000 nM.

Turning to `C=CC(=O)Nc1ccc(-c2[nH]c3ncnc(C)c3c2-c2ccc(Oc3ccccc3)cc2)cc1` [Example 1254], the IC50 lay in the range of 1000 to 100000 nM.

Take `C=C(F)C(=O)Nc1ccc(-c2c(-c3ccc(-c4noc(C5CC5)n4)cc3)c3c(N)ncnc3n2C)cc1` [Example 1326]: the concentration for half-maximal inhibition (IC50) is 100 to 250 nM.

`C=CC(=O)Nc1ccc(-c2[nH]c3ncnc(C)c3c2-c2cc3ccccc3s2)cc1` [Example 1256]: the IC50 lay in the range of 1000 to 100000 nM.

In the case of `C#Cc1ncc(-c2c(-c3ccc(Oc4nccc(C)n4)cc3)c3c(N)ncnc3n2C)cc1OC` [Example 1178], the IC50 was 1000 to 100000 nM.

On to `C=C(C)C(=O)Nc1ccc(-c2c(-c3ccc(-c4coc(C)n4)cc3)c3c(N)ncnc3n2C)cc1` [Example 1224], for which the IC50 is 250 to 1000 nM.

Turning to `C=C(C)C(=O)Nc1cnc(-c2c(-c3ccc(Oc4cccc(C)n4)c(F)c3)c3c(C)ncnc3n2C)c(C)c1` [Example 1139], the IC50 was under 100 nM.

Regarding `[2H]C#Cc1cc2c(cn1)-c1c(-c3ccc(Oc4nccc(C)n4)c(F)c3)c3c(N)ncnc3n1CCC2` [Example 1449], the IC50 was under 100 nM.

Compound `C=C(C)C(=O)Nc1ccc(-c2c(-c3ccc(-n4cc(C(F)(F)F)cn4)cc3)c3c(N)ncnc3n2C)cc1` [Example 1226] displayed an IC50 of 1000 to 100000 nM.

Consider `Cn1c(-c2ccc(C#N)cc2)c(-c2ccccc2)c2c(N)ncnc21` [Example 1173], for which the IC50 was in the range of 1000 to 100000 nM.

On to `C=CC(=O)Nc1ccc(-c2c(C3=CC[C@H](C(=O)N4CCCC4)CC3)c3c(N)ncnc3n2C)c(C)c1` (single isomer, unassigned) [Example 1101], for which the IC50 was under 100 nM.

With `C=C(C)C(=O)Nc1ccc(-c2c(-c3ccc(-n4cc(C)cn4)cc3)c3c(N)ncnc3n2C)cc1` [Example 1191], the IC50 lay in the range of 1000 to 100000 nM.

As for `C=CC(=O)Nc1ccc(-c2c(-c3ccc(-c4noc(C5CC5)n4)cc3)c3c(N)ncnc3n2C)cc1` [Example 1335], the IC50 is under 100 nM.

With `C=Cc1cc(-c2c(-c3ccccc3)c3c(N)ncnc3n2C)ccn1` [Example 1195], the IC50 was in the range of 100 to 250 nM.

In turn, `C#Cc1cnc(-c2c(-c3ccc(Oc4nccc(C)n4)cc3)c3c(N)ncnc3n2C)c(C)n1` [Example 1176] returned an IC50 of 1000 to 100000 nM.

The compound `C=CC(=O)Nc1ccc(-c2c(-c3cnsc3)c3c(N)ncnc3n2C)cc1` [Example 1150] gave an IC50 of under 100 nM.

Compound `C#Cc1cc(C)c(-c2c(-c3ccc(OC(F)(F)F)cc3)c3c(N)ncnc3n2C)cn1` [Example 1129] had an IC50 of under 100 nM.

`C#Cc1ncc(-c2[nH]c3ncnc(N)c3c2-c2ccc(Oc3nccc(C)n3)cc2)c(C)n1` [Example 1159]: the IC50 lay in the range of 250 to 1000 nM.

`C=C(C)C(=O)Nc1ccc(-c2c(-c3sc4ccccc4c3C)c3c(N)ncnc3n2C)cc1` [Example 1247] had an IC50 of 1000 to 100000 nM.

`C=CC(=O)Nc1ccc(-c2c(-c3ccc(Oc4nccc(C)n4)c(C)c3)c3c(N)ncnc3n2C)c(F)c1` [Example 1075] displayed an IC50 of under 100 nM.

`C=CC(=O)Nc1ccc(-c2c(-c3ccc(Oc4ccccc4)cc3)c3c(C)ncnc3n2C(C)C)cc1` [Example 1218]: the IC50 fell in the range of 1000 to 100000 nM.

`C=CC(=O)Nc1ccc(-c2c(-c3ccc(Oc4ccccc4)cc3)c3c(C)ncnc3n2C)cc1` [Example 1225] came in with an IC50 of 250 to 1000 nM.

`C#Cc1cc(OC)c(-c2c(-c3ncc(Oc4nccc(C)n4)cc3F)c3c(N)ncnc3n2C)c(C)n1` [Example 1451] displayed an IC50 of under 100 nM.

`C=C(C)C(=O)Nc1ccc(-c2c(C3=CCN(c4ccccc4)CC3)c3c(N)ncnc3n2C)cc1` [Example 1216] showed an IC50 of 1000 to 100000 nM.

The compound `C=C(C)C(=O)Nc1ccc(-c2c(-c3ccc(-c4noc(C5CC5)n4)c(N)c3)c3c(N)ncnc3n2C)cc1` [Example 1318] displayed an IC50 of 1000 to 100000 nM.

`C#Cc1cc(C)c(-c2c(-c3ccc(Oc4nccc(C)n4)cc3F)c3c(N)ncnc3n2C)cn1` [Example 1196] gave an IC50 of 250 to 1000 nM.

With `C=C(C)C(=O)Nc1ccc(-c2c(-c3cc(-c4ccccc4)cs3)c3c(N)ncnc3n2C)cc1` [Example 1221], the IC50 is 250 to 1000 nM.

In turn, `C=CC(=O)Nc1ccc(-c2c(-c3ccccc3)c3c(C)ncnc3n2C)cc1` [Example 1248] showed a 50% inhibitory concentration (IC50) of 1000 to 100000 nM.

As for `C=C(C)C(=O)Nc1cc(Cl)c(-c2c(-c3ccc(Oc4nccc(C)n4)cc3)c3c(N)ncnc3n2C)cc1F` [Example 1076], the IC50 was under 100 nM.

With `C=C(C)C(=O)Nc1ccc(-c2c(-c3ccc(-c4noc(C5CC5)n4)c([N+](=O)[O-])c3)c3c(N)ncnc3n2C)cc1` [Example 1317], the half-inhibitory concentration (IC50) lay in the range of 1000 to 100000 nM.

For the compound `C=C(C)C(=O)Nc1ccc(-c2c(-c3ccc(-c4ccn[nH]4)cc3)c3c(N)ncnc3n2C)cc1` [Example 1156], the IC50 lay in the range of 1000 to 100000 nM.

As for `C=C(C)C(=O)Nc1ccc(-c2c(-c3ccc4nn(C)cc4c3)c3c(N)ncnc3n2C)cc1` [Example 1122], the IC50 is under 100 nM.
